Laboratory results as given in patent US20230337677A1, “ARYL AND PYRIDYL AMIDE PESTICIDES AND COMPOSITIONS THEREOF” (University of Florida Research Foundation, Incorporated, priority 2019, published 2023).
Where a name gives a salt, the structure may show the parent alone.

Experiments:
Format in all cases: in vivo
[1] = test system: Aedes aegypti mosquitoes, insecticide-susceptible Orlando strain; conditions: for 1 h % Repellency, 100 μg/cm^2: screened at 100 μg/cm^2, strain not given; for 1 h Repellency EC50, μg/cm^2: (OR); for vapor repellency / mortality, statement in words (Example 8): structure-activity analysis of Table 2
Description: The tubes as shown were held horizontally on the bench.
For assessing behavioral repellency (FIG. 1), Aedes aegypti mosquitoes were used from the insecticide-susceptible Orlando strain and the pyrethroid-resistant Puerto Rico strain. Sixteen female mosquitoes were transferred to a glass tube (12.5 cm long, 2.5 cm outer diameter) with the ends covered with netting. Each compound was dissolved in 1 mL of acetone and serial dilutions ranging from 30-0.01 μg/ml were made. Circular filter papers (5 cm^2) were saturated with 50 μL of each concentration and allowed 10 min for solvent evaporation. The filter papers were then placed in clear conical polypropylene caps and fixed to the end of the glass tubes. The netting prevented mosquito contact with the filter paper. The tubes were then aligned with a mark denoting the midline and the proportion of mosquitoes on the chemically treated side was scored for up to 60 min. At the end of the test, the tube was placed in a cage and the ability of the mosquitoes to fly out of the tube was assessed for 30 min. […] This post-test evaluated whether any non-responding mosquitoes (not repelled) resulted from intoxication or disorientation from the test chemical. For assessment of lethality, insects were held for 24 hr under constant exposure in glass tubes having treated filter papers.
Compounds were first screened at 100 μg/cm^2 for repellency and 24 h mortality.

[2] = test system: Anopheles gambiae G3 sensitive strain; test: Topical toxicity (24 hour mortality), An. gambiae G3; conditions: topical application, 24 h mortality, female adults, susceptible strain G3
Description: (§1) The Aedes aegypti strains Orlando (sensitive) as well as the Puerto Rico (PR, resistant to permethrin) were used. The Anopheles gambiae (G3 sensitive strain, as well as Akron kdr (Akdr) strain, resistant to pyrethroids were also assessed. The larvae were provided by the USDA, Gainesville Fl, and raised in a pan with tap water maintained at 28° C. Larvae were fed a ground liver and yeast mixture, and pupae were placed in emergence cages. Adults were held at 28° C. and provided with cotton balls soaked in 10% sugar water for rearing and for all bioassays.
(§2) Female adults from 3 to 6 days were used for the experiments. The drug was dissolved in ethanol and then applied with a micro-applicator on the thorax, between the legs: 200 nL of drug per female mosquito, with different concentrations of the drug; 10 mosquitos were treated together per concentration per replicate, and put together in a small container with free access to sweet water. Mortality, i.e. no visible movement, was assessed 24 hours after treatment. Every compound was assessed on at least 3 different cohorts of mosquitoes, and the LD50 values and slopes were determined with Probit analysis, corrected with Abbott's formula.

[3] = test system: Aedes aegypti strain Orlando (sensitive); test: Topical toxicity (24 hour mortality), Ae. aegypti Orlando; conditions: topical application, 24 h mortality, female adults, susceptible Orlando strain
Description: as §1, §2

[4] = test system: Anopheles gambiae Akron kdr (Akdr) strain, resistant to pyrethroids; test: Topical toxicity (24 hour mortality), An. gambiae Akdr; conditions: for An. gambiae AKDR LD50: topical application, 24 h mortality, female adults, pyrethroid-resistant Akdr strain
Description: as §1, §2

SMILES | 1 h % Repellency, 100 μg/cm^2 [1] [%] | Ae. aegypti OR LD50 [3] [ng/mg] | other results
CCOC(=O)c1ccccc1C(F)(F)F [MTFI-5-13B] | 12 |  | 
CCC(=O)Nc1ccccc1OC(F)(F)F [GMR170] | 94 |  | 1 h Repellency EC50, μg/cm^2 [1]: 15 μg/cm^2
O=C(Nc1c(Cl)c(Cl)nc(Cl)c1Cl)C(F)(F)C(F)(F)C(F)(F)F [GMR074] |  | 29 | An. gambiae G3 LD50 [2]: 11.00 ng/mg; An. gambiae RR (resistance ratio) ([4]; 24 h LD50 resistant strain (AKDR)/24 h LD50 susceptible strain (G3)): 0.8; An. gambiae AKDR LD50 [4]: 8.6 ng/mg
O=C(Nc1cc(Br)nc(Br)c1)C(F)(F)F [GMR040] |  | 1223 | An. gambiae G3 LD50 [2]: >100 ng/mg; An. gambiae AKDR LD50 [4]: >100 ng/mg
O=C1C2=C(CCCC2)C(=O)N1COC(=O)C(F)(F)C(F)(F)C(F)(F)F [GMR096] |  | 2538 | An. gambiae G3 LD50 [2]: >100 ng/mg
O=C(NCC(F)(F)F)Nc1c(Cl)cc(C(F)(F)F)cc1Cl [MTFI-4-FPL-A] | 0 |  | vapor repellency / mortality, statement in words (Example 8) [1]: reduced repellency
O=C(CCC1CCCCC1)Nc1ccc(C(F)(F)F)cc1 [MTFI-3-4B] | 8 |  | 
COC(=O)c1cc(C)c(C(F)(F)F)cc1N [MTFI-5-12C] | 30 |  | vapor repellency / mortality, statement in words (Example 8) [1]: moderate repellency in some instances
COC(=O)c1cc(C(F)(F)F)ccc1N [MTFI-5-12D] | 84 |  | vapor repellency / mortality, statement in words (Example 8) [1]: moderate repellency in some instances
CC(C)CC(=O)Nc1cc(Cl)nc(Cl)c1 [GMR145] |  | 775 | 
CC1(C)C(C=C(Cl)Cl)C1C(=O)O (stereo not drawn) [TFA, 1R-transfluthrin acid, reference compound] |  |  | repellency of TFA alone ([1]; alone): inactive alone
O=C(Nc1ccnc(C(F)(F)F)c1)C(F)(F)C(F)(F)C(F)(F)C(F)(F)C(F)(F)F [GMR070] |  | 1261 | An. gambiae AKDR LD50 [4]: 1261 ng/mg
O=C(Nc1ncc(C(F)(F)F)cc1Cl)C(F)(F)C(F)(F)C(F)(F)F [GMR080] |  | >1000 | An. gambiae AKDR LD50 [4]: >100 ng/mg
CCCCCC(=O)Nc1c(F)c(F)nc(F)c1F [GMR065] |  | 1225 | An. gambiae AKDR LD50 [4]: 1225 ng/mg
CC(=O)Nc1ccc(C(F)(F)F)cc1 [MTFI-3-4A] | 8 |  | 
O=C(CCl)Nc1cccc(O)c1 [MTFI-5-15A] | 36 |  | 
O=C(Nc1c(F)c(F)nc(F)c1F)C(F)(F)F [GMR081] |  | 698 | An. gambiae AKDR LD50 [4]: >100 ng/mg
C=CCCCC(=O)Nc1ccccc1C(F)(F)F [MTFI-3-2E] | 76 |  | 
O=C(Nc1ccnc(Cl)c1)C(F)(F)C(F)(F)C(F)(F)C(F)(F)C(F)(F)F [GMR068] |  | 3425 | An. gambiae AKDR LD50 [4]: 3425 ng/mg
COC(=O)c1ccccc1C(F)(F)F [MTFI-5-13A] | 6 |  | 
COC(=O)c1ccccc1O [MTFI-5-14A] | 70 |  | vapor repellency / mortality, statement in words (Example 8) [1]: moderate repellency and toxicity
O=C(Nc1ccc(C(F)(F)F)cc1)c1cc(Cl)cc(Cl)c1 [MTFI-4-NA-1C] | 8 |  | vapor repellency / mortality, statement in words (Example 8) [1]: poor results
O=C(CCl)Nc1cc(C(F)(F)F)cc(C(F)(F)F)c1 [MTFI-3-1F] | 88 |  | 
COC(=O)c1cc(F)c(F)cc1N [MTFI-5-12A] | 92 |  | 1 h Repellency EC50, μg/cm^2 [1]: 23 μg/cm^2; vapor repellency / mortality, statement in words (Example 8) [1]: moderate repellency in some instances
C=CC(=O)Nc1ccccc1C(F)(F)F [GMR021] | 92 |  | 1 h Repellency EC50, μg/cm^2 [1]: 32 μg/cm^2
CC1(C)[C@H](C=C(Cl)Cl)[C@H]1C(=O)Nc1cc(F)cc(F)c1 [GMR179] | 30 |  | 

SMILES | 1 h % Repellency, 100 μg/cm^2 [1] [%] | Ae. aegypti OR LD50 [3] [ng/mg] | other results
O=C(Nc1cc(Cl)nc(Cl)c1)C(Cl)(Cl)Cl [GMR059] |  | 866 | 
O=C(Nc1cc(C(F)(F)F)cc(C(F)(F)F)c1)C(F)(F)C(F)(F)C(F)(F)F [MTFI-4-2D] | 12 |  | 
O=C(CCC1CCCCC1)Nc1cccc(C(F)(F)F)c1 [MTFI-3-3A] | 16 |  | 
O=C(Nc1cc(Cl)cc(Cl)n1)C(F)(F)C(F)(F)C(F)(F)F [GMR078] |  | 5668 | An. gambiae AKDR LD50 [4]: >100 ng/mg
O=C(NCC(F)(F)F)c1cc(F)c(F)c(F)c1 [GMR173] | 44 |  | vapor repellency / mortality, statement in words (Example 8) [1]: some repellency and mortality
O=C(Nc1ccccn1)C(F)(F)C(F)(F)C(F)(F)F [GMR060] |  | 1758 | 
CCCC(=O)N(C(=O)CCC)c1cccc(OC(F)(F)F)c1 [GMR163] | 50 |  | An. gambiae G3 LD50 [2]: >1000 ng/mg; An. gambiae AKDR LD50 [4]: >1000 ng/mg
O=C(Nc1ccc(Cl)cn1)C(F)(F)C(F)(F)C(F)(F)F [GMR079] |  | >1000 | An. gambiae AKDR LD50 [4]: >100 ng/mg
O=C(CCl)Nc1cccc(F)c1 [MTFI-5-1A] | 6 |  | 
O=C(Nc1ccccc1C(F)(F)F)C(F)(F)F [MTFI-1-4C] | −6 |  | 
COC(=O)c1cccc(C(F)(F)F)c1N [MTFI-5-12B] |  |  | vapor repellency / mortality, statement in words (Example 8) [1]: moderate repellency in some instances
CC(C)(C)OC(=O)N(C(=O)C(F)(F)F)c1cc(Cl)nc(Cl)c1 [GMR119] |  | 343 | 
O=C(CCC1CCCCC1)Nc1c(Cl)cc(C(F)(F)F)cc1Cl [MTFI-3-5A] | 0 |  | 
CCCC(=O)Nc1ccccc1OC(F)(F)F [GMR171] | 100 |  | 1 h Repellency EC50, μg/cm^2 [1]: 29 μg/cm^2
CCCC(=O)Nc1cccc(OC(F)(F)F)c1 [GMR162] | 50 |  | An. gambiae G3 LD50 [2]: >1000 ng/mg; An. gambiae AKDR LD50 [4]: >1000 ng/mg
COC(=O)c1cccc(C(F)(F)F)c1N [MTFI-5-512B] | 42 |  | 
CCCCOC(=O)c1ccccc1O [MTFI-5-14C] |  |  | knockdown in 1 hr repellency test (XXkd = number of insects incapacitated out of 16 females) ([1]; in vivo): 8
O=C(CSC(F)(F)F)Nc1cc(F)c(F)c(F)c1 [GMR177] | 30 | 220 | vapor repellency / mortality, statement in words (Example 8) [1]: poor activity
COC(=O)c1ccccc1N(C)C(F)(C(F)(F)F)C(F)(F)F [MTFI-5-11A] |  |  | vapor repellency / mortality, statement in words (Example 8) [1]: moderate repellency in some instances
CC(=O)N(C(C)=O)c1ccccc1OC(F)(F)F [GMR169] | 82 |  | An. gambiae G3 LD50 [2]: >1000 ng/mg; An. gambiae AKDR LD50 [4]: >1000 ng/mg
CCCCCC(=O)N(C(=O)CCCCC)c1cccc(OC(F)(F)F)c1 [GMR165] | 62 |  | 
Cc1cc(NC(=O)C(F)(F)C(F)(F)C(F)(F)C(F)(F)C(F)(F)F)cc(C)n1 [GMR073] |  | >3000 | 
COc1cc(NC(=O)C(F)(F)C(F)(F)C(F)(F)C(F)(F)C(F)(F)F)ccn1 [GMR071] |  | >2000 | 
O=C(Nc1cc(Cl)nc(Cl)c1)C(C(F)(F)F)C(F)(F)F [GMR174] |  | 500 | 
CCOC(=O)c1ccccc1O [MTFI-5-14B] | 30 |  | vapor repellency / mortality, statement in words (Example 8) [1]: moderate repellency and toxicity
